Assay results: PubChem BioAssay AID1963853 (Molecular Pharmacology Branch, DTP, NCI, 2024)

Test system: 266295-075-R-J1-PDC spheroid viability
Experiment: Anticancer human tumor 266295-075-R-J1-PDC patient-derived head and neck squamous carcinoma cell line growth inhibition [POLQ]
Settings: spheroids with HUVEC and MSC; for IC50: curve of first compound; for viability, T/C: stronger effect = lower value
Outline: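 PDC + HUVEC + MSC complex spheroids; POLQ inhibitors ± partner drugs; top conc. at/near clinical Cmax, else 10 microM (SN-38 1 microM), half-log dilutions; 37 degrees C, 5% CO2.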

[1] = second compound 0.0316 µM, first compound 0.00316 µM
[2] = second compound 0.0316 µM, first compound 0.01 µM
[3] = second compound 0.0316 µM, first compound 0.0316 µM
[4] = second compound 0.0316 µM, first compound 0.1 µM
[5] = second compound 0.0316 µM, first compound 0.316 µM
[6] = second compound 0.0316 µM, first compound 1 µM
[7] = second compound 0.1 µM, first compound 0.00316 µM
[8] = second compound 0.1 µM, first compound 0.01 µM
[9] = second compound 0.1 µM, first compound 0.0316 µM
[10] = second compound 0.1 µM, first compound 0.1 µM
[11] = second compound 0.1 µM, first compound 0.316 µM
[12] = second compound 0.1 µM, first compound 1 µM
[13] = second compound 0.316 µM, first compound 0.00316 µM
[14] = second compound 0.316 µM, first compound 0.01 µM
[15] = second compound 0.316 µM, first compound 0.0316 µM
[16] = second compound 0.316 µM, first compound 0.1 µM
[17] = second compound 0.316 µM, first compound 0.316 µM
[18] = second compound 0.316 µM, first compound 1 µM
[19] = second compound 1 µM, first compound 0.00316 µM
[20] = second compound 1 µM, first compound 0.01 µM
[21] = second compound 1 µM, first compound 0.0316 µM
[22] = second compound 1 µM, first compound 0.1 µM
[23] = second compound 1 µM, first compound 0.316 µM
[24] = second compound 1 µM, first compound 1 µM
[25] = second compound 3.16 µM, first compound 0.00316 µM
[26] = second compound 3.16 µM, first compound 0.01 µM
[27] = second compound 3.16 µM, first compound 0.0316 µM
[28] = second compound 3.16 µM, first compound 0.1 µM
[29] = second compound 3.16 µM, first compound 0.316 µM
[30] = second compound 3.16 µM, first compound 1 µM
[31] = second compound 10 µM, first compound 0.00316 µM
[32] = second compound 10 µM, first compound 0.01 µM
[33] = second compound 10 µM, first compound 0.0316 µM
[34] = second compound 10 µM, first compound 0.1 µM
[35] = second compound 10 µM, first compound 0.316 µM
[36] = second compound 10 µM, first compound 1 µM
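Note: spheroids exposed to compounds for seven days before readout.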

C=CCn1c(=O)c2cnc(Nc3ccc(N4CCN(C)CC4)cc3)nc2n1-c1cccc(C(C)(C)O)n1 + Cc1cccc(N(C)C(=O)C2C(O)CCN2c2nc(C)cc(C(F)(F)F)c2C#N)c1
IC50 (second compound 0.0316 µM): > 1 µM | IC50 (second compound 0.1 µM): > 1 µM | IC50 (second compound 0.316 µM): > 1 µM | IC50 (second compound 1 µM): > 1 µM | IC50 (second compound 3.16 µM): > 1 µM | IC50 (second compound 10 µM): > 1 µM | viability, T/C [1]: 97.4% | viability, T/C [2]: 97.7% | viability, T/C [3]: 112% | viability, T/C [4]: 101% | viability, T/C [5]: 80% | viability, T/C [6]: 62.5% | viability, T/C [7]: 101% | viability, T/C [8]: 115% | viability, T/C [9]: 111% | viability, T/C [10]: 127% | viability, T/C [11]: 79.4% | viability, T/C [12]: 63% | viability, T/C [13]: 119% | viability, T/C [14]: 116% | viability, T/C [15]: 99.7% | viability, T/C [16]: 131% | viability, T/C [17]: 81.7% | viability, T/C [18]: 64.7% | viability, T/C [19]: 114% | viability, T/C [20]: 104% | viability, T/C [21]: 119% | viability, T/C [22]: 78.4% | viability, T/C [23]: 77.4% | viability, T/C [24]: 63.6% | viability, T/C [25]: 118% | viability, T/C [26]: 93.6% | viability, T/C [27]: 91.6% | viability, T/C [28]: 116% | viability, T/C [29]: 68.8% | viability, T/C [30]: 71.5% | viability, T/C [31]: 137% | viability, T/C [32]: 117% | viability, T/C [33]: 102% | viability, T/C [34]: 128% | viability, T/C [35]: 87.7% | viability, T/C [36]: 81.8%

CC[C@@]1(O)C(=O)OCc2c1cc1n(c2=O)Cc2cc3c(CN(C)C)c(O)ccc3nc2-1 + Cc1cccc(N(C)C(=O)C2C(O)CCN2c2nc(C)cc(C(F)(F)F)c2C#N)c1
IC50 (second compound 0.0316 µM): > 0.1 µM | IC50 (second compound 0.1 µM): > 0.1 µM | IC50 (second compound 0.316 µM): > 0.1 µM | IC50 (second compound 1 µM): > 0.1 µM | IC50 (second compound 3.16 µM): > 0.1 µM | IC50 (second compound 10 µM): > 0.1 µM | viability, T/C (second compound 0.0316 µM, first compound 0.000316 µM): 75% | viability, T/C (second compound 0.0316 µM, first compound 0.001 µM): 85.8% | viability, T/C [1]: 107% | viability, T/C [2]: 83.8% | viability, T/C [3]: 91.3% | viability, T/C [4]: 76.3% | viability, T/C (second compound 0.1 µM, first compound 0.000316 µM): 94.2% | viability, T/C (second compound 0.1 µM, first compound 0.001 µM): 90.1% | viability, T/C [7]: 77.6% | viability, T/C [8]: 81.2% | viability, T/C [9]: 86.6% | viability, T/C [10]: 77.8% | viability, T/C (second compound 0.316 µM, first compound 0.000316 µM): 101% | viability, T/C (second compound 0.316 µM, first compound 0.001 µM): 88% | viability, T/C [13]: 88% | viability, T/C [14]: 86.8% | viability, T/C [15]: 106% | viability, T/C [16]: 93.9% | viability, T/C (second compound 1 µM, first compound 0.000316 µM): 79% | viability, T/C (second compound 1 µM, first compound 0.001 µM): 103% | viability, T/C [19]: 85.2% | viability, T/C [20]: 91.2% | viability, T/C [21]: 92.3% | viability, T/C [22]: 87.7% | viability, T/C (second compound 3.16 µM, first compound 0.000316 µM): 78% | viability, T/C (second compound 3.16 µM, first compound 0.001 µM): 94.2% | viability, T/C [25]: 92.4% | viability, T/C [26]: 87.2% | viability, T/C [27]: 91.9% | viability, T/C [28]: 78.2% | viability, T/C (second compound 10 µM, first compound 0.000316 µM): 122% | viability, T/C (second compound 10 µM, first compound 0.001 µM): 93.8% | viability, T/C [31]: 93.3% | viability, T/C [32]: 109% | viability, T/C [33]: 115% | viability, T/C [34]: 88.4%

CCc1c2c(nc3ccc(O)cc13)-c1cc3c(c(=O)n1C2)COC(=O)[C@]3(O)CC + Cc1cccc(N(C)C(=O)C2C(O)CCN2c2nc(C)cc(C(F)(F)F)c2C#N)c1
IC50 (second compound 0.0316 µM): > 1 µM | IC50 (second compound 0.1 µM): > 1 µM | IC50 (second compound 0.316 µM): > 1 µM | IC50 (second compound 1 µM): > 1 µM | IC50 (second compound 3.16 µM): > 1 µM | IC50 (second compound 10 µM): > 1 µM | viability, T/C [1]: 90.2% | viability, T/C [2]: 81.4% | viability, T/C [3]: 80.4% | viability, T/C [4]: 85.8% | viability, T/C [5]: 113% | viability, T/C [6]: 76.7% | viability, T/C [7]: 90.3% | viability, T/C [8]: 78.5% | viability, T/C [9]: 90.4% | viability, T/C [10]: 81.9% | viability, T/C [11]: 110% | viability, T/C [12]: 72.9% | viability, T/C [13]: 85.8% | viability, T/C [14]: 84.1% | viability, T/C [15]: 87.2% | viability, T/C [16]: 87% | viability, T/C [17]: 92.5% | viability, T/C [18]: 75.1% | viability, T/C [19]: 91.5% | viability, T/C [20]: 86.7% | viability, T/C [21]: 77% | viability, T/C [22]: 84.3% | viability, T/C [23]: 92.7% | viability, T/C [24]: 75.5% | viability, T/C [25]: 78.5% | viability, T/C [26]: 74.1% | viability, T/C [27]: 79.9% | viability, T/C [28]: 89% | viability, T/C [29]: 107% | viability, T/C [30]: 75.2% | viability, T/C [31]: 92.8% | viability, T/C [32]: 92% | viability, T/C [33]: 82.9% | viability, T/C [34]: 85.7% | viability, T/C [35]: 87.8% | viability, T/C [36]: 55.6%

O=C(c1cc(Cc2n[nH]c(=O)c3ccccc23)ccc1F)N1CCN(C(=O)C2CC2)CC1 + Cc1cccc(N(C)C(=O)C2C(O)CCN2c2nc(C)cc(C(F)(F)F)c2C#N)c1
IC50 (second compound 0.0316 µM): > 10 µM | IC50 (second compound 0.1 µM): > 10 µM | IC50 (second compound 0.316 µM): > 10 µM | IC50 (second compound 1 µM): > 10 µM | IC50 (second compound 3.16 µM): > 10 µM | IC50 (second compound 10 µM): > 10 µM | viability, T/C [3]: 91% | viability, T/C [4]: 104% | viability, T/C [5]: 80.3% | viability, T/C [6]: 85.6% | viability, T/C (second compound 0.0316 µM, first compound 3.16 µM): 93.2% | viability, T/C (second compound 0.0316 µM, first compound 10 µM): 104% | viability, T/C [9]: 95.5% | viability, T/C [10]: 103% | viability, T/C [11]: 91.4% | viability, T/C [12]: 89.6% | viability, T/C (second compound 0.1 µM, first compound 3.16 µM): 99.3% | viability, T/C (second compound 0.1 µM, first compound 10 µM): 78% | viability, T/C [15]: 86.6% | viability, T/C [16]: 86.5% | viability, T/C [17]: 91.7% | viability, T/C [18]: 91.4% | viability, T/C (second compound 0.316 µM, first compound 3.16 µM): 107% | viability, T/C (second compound 0.316 µM, first compound 10 µM): 75.3% | viability, T/C [21]: 121% | viability, T/C [22]: 110% | viability, T/C [23]: 89.5% | viability, T/C [24]: 92.1% | viability, T/C (second compound 1 µM, first compound 3.16 µM): 82.5% | viability, T/C (second compound 1 µM, first compound 10 µM): 85.9% | viability, T/C [27]: 92.8% | viability, T/C [28]: 97.1% | viability, T/C [29]: 93.5% | viability, T/C [30]: 110% | viability, T/C (second compound 3.16 µM, first compound 3.16 µM): 121% | viability, T/C (second compound 3.16 µM, first compound 10 µM): 89% | viability, T/C [33]: 101% | viability, T/C [34]: 99% | viability, T/C [35]: 95.1% | viability, T/C [36]: 107% | viability, T/C (second compound 10 µM, first compound 3.16 µM): 115% | viability, T/C (second compound 10 µM, first compound 10 µM): 94.6%
